This note sets out measurements from ChEMBL document CHEMBL1201862, “PubChem BioAssay data set” (2004).

The structures appear in SMILES notation.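 Growth conditions: 96-well plates. Treatment: test compound, 48 hours, 5 concentrations. Analysis: linear interpolation between bracketing concentrations; unreached endpoints set to highest concentration. Abbreviation: GI50, concentration required for 50% inhibition of growth.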 The source made the active and inactive calls. No stated cut-off is given here; in the data, active = GI50 up to about 1.1 µM and inactive = higher.

Test systems include A549; BT-549; COLO 205; DU-145; HOP-62; M19-MEL; MDA-MB-435; Malme-3M; NCI-H226; NCI-H23; NCI/ADR-RES; OVCAR-8; RPMI-8226; SK-MEL-2; SK-MEL-5; SN12C; SW-620; UACC-257; UACC-62; UO-31.
Common to all, as to assay: NCI-60 cell line screen, 48 h

Regarding `COC1C(OC(=O)/C=C/C=C/C=C/C=C\C(=O)O)CCC2(CO2)C1C1(C)OC1CC=C(C)C` (stereo not given), the GI50 in the assay on A549, in the assay on BT-549, in the assay with COLO 205, in the assay on DU-145, with HOP-62 and in the assay on M19-MEL was > 100 µM (inactive) each time. Also, the GI50 in the assay on MDA-MB-435 was > 100 µM (inactive); in the assay with Malme-3M, 131 µM (inactive); in the assay on NCI-H226 it was > 100 µM (inactive); in the assay with NCI-H23, > 100 µM (inactive); with NCI/ADR-RES, > 100 µM (inactive); in the assay on OVCAR-8, > 100 µM (inactive). The GI50 in the assay with RPMI-8226, in the assay with SK-MEL-2, in the assay on SK-MEL-5, in the assay with SN12C, with SW-620 and with UACC-257 was > 100 µM (inactive) each time. Further, the GI50 in the assay on UACC-62 and with UO-31 was > 100 µM (inactive) in each case.

Regarding `CNc1nc(N)cc(O)n1`, the GI50 in the assay on A549, with COLO 205, in the assay with HOP-62, with M19-MEL, with Malme-3M and in the assay with NCI-H226 was > 100 µM (inactive) in each case. Further, the GI50 in the assay on NCI-H23, with OVCAR-8, with RPMI-8226, in the assay on SK-MEL-2, in the assay on SK-MEL-5 and with SN12C was > 100 µM (inactive) throughout. The GI50 in the assay on SW-620, in the assay on UACC-257, in the assay with UACC-62 and in the assay on UO-31 was > 100 µM (inactive) each time.

As to `O=C(N[C@@H]1C=CCC[C@@H]1c1ccccc1)OCc1ccccc1`, the GI50 is 25.6 µM (inactive) with A549; 18.5 µM (inactive) in the assay with COLO 205; 18.5 µM (inactive) with HOP-62; 21.5 µM (inactive) in the assay with M19-MEL; 19.3 µM (inactive) with Malme-3M; 19 µM (inactive) in the assay with NCI-H226. In addition, the GI50 in the assay on NCI-H23 was 22.8 µM (inactive); in the assay with OVCAR-8, 20.1 µM (inactive); in the assay with RPMI-8226 it was 18 µM (inactive); in the assay with SK-MEL-2, 16.3 µM (inactive); in the assay with SK-MEL-5 it was 17.9 µM (inactive); with SN12C it was 16.9 µM (inactive). In addition, the GI50 in the assay with SW-620 is 22.9 µM (inactive); in the assay with UACC-257 it was 17.5 µM (inactive); with UACC-62, 14.1 µM (inactive); with UO-31, 18.1 µM (inactive).

As to `CC(C)Cc1ccc(C(C)/C=C2\CCC(CN(C)C)C2=O)cc1` (stereo not given), the GI50 in the assay with A549 was 27.7 µM (inactive); in the assay with BT-549 it was 17.1 µM (inactive); in the assay on COLO 205 it was 11.6 µM (inactive); in the assay with DU-145, 11.4 µM (inactive); in the assay with HOP-62, 9.23 µM (inactive); in the assay with M19-MEL, 17.6 µM (inactive). The GI50 was 7.16 µM (inactive) in the assay with MDA-MB-435; 17 µM (inactive) in the assay on Malme-3M; 20.2 µM (inactive) in the assay with NCI-H226; 12.6 µM (inactive) with NCI-H23; 5.89 µM (inactive) with NCI/ADR-RES; 9.38 µM (inactive) in the assay on OVCAR-8. In addition, the GI50 in the assay with RPMI-8226 was 1.56 µM (inactive); with SK-MEL-2, 14.4 µM (inactive); in the assay on SK-MEL-5, 11.7 µM (inactive); in the assay with SN12C, 10 µM (inactive); with SW-620 it was 6.82 µM (inactive); in the assay with UACC-257, 14.8 µM (inactive). The GI50 in the assay on UACC-62 is 17.5 µM (inactive); in the assay with UO-31 it was 10.9 µM (inactive).

For `COc1c(Br)cc(Br)c(OC)c1-c1[nH]c(Br)c(Br)c1Br`, the GI50 in the assay with A549 is 5.04 µM (inactive); in the assay on COLO 205, 10.4 µM (inactive); with HOP-62, 8.22 µM (inactive); in the assay with M19-MEL it was 10.2 µM (inactive); with Malme-3M, 3.74 µM (inactive); in the assay with NCI-H226, 5.7 µM (inactive). The GI50 in the assay on NCI-H23 was 2.98 µM (inactive); in the assay on OVCAR-8 it was 8.75 µM (inactive); with RPMI-8226, 3.39 µM (inactive); with SK-MEL-2, 3.01 µM (inactive); in the assay on SK-MEL-5 it was 6.55 µM (inactive); in the assay with SN12C, 5.9 µM (inactive). For the same compound, the GI50 was 7.11 µM (inactive) with SW-620, 4.81 µM (inactive) with UACC-257, 6.98 µM (inactive) with UACC-62 and 2.13 µM (inactive) in the assay on UO-31.

With `CCOC(=O)C(=O)C=P(c1ccccc1)(c1ccccc1)c1ccccc1`, the GI50 in the assay with A549, with COLO 205, with HOP-62, in the assay on M19-MEL, in the assay with Malme-3M and in the assay with NCI-H226 was > 100 µM (inactive) each time. The GI50 in the assay on NCI-H23, in the assay with OVCAR-8, in the assay on RPMI-8226, with SK-MEL-2, in the assay with SK-MEL-5 and in the assay on SN12C was > 100 µM (inactive) each time. The GI50 with SW-620, with UACC-257, in the assay with UACC-62 and in the assay on UO-31 was > 100 µM (inactive) throughout.

Regarding `COC[n+]1cc2cc(OC)c(OC)cc2c2ccc3cc(OC)c(OC)cc3c21`, the GI50 in the assay on A549, with COLO 205, in the assay with HOP-62, in the assay on M19-MEL, in the assay on Malme-3M and with NCI-H226 was > 100 µM (inactive) in each case. Besides, the GI50 with NCI-H23, with OVCAR-8, with RPMI-8226, with SK-MEL-2, in the assay on SK-MEL-5 and with SN12C was > 100 µM (inactive) each time. The GI50 in the assay with SW-620, in the assay with UACC-257, with UACC-62 and with UO-31 was > 100 µM (inactive) each time.

For `CCOc1ccc(-c2oc(/C=N/NS(=O)(=O)c3ccc(C)cc3)c([N+](=O)[O-])c2-c2ccc(OCC)cc2)cc1`, the GI50 with A549 is 19.4 µM (inactive); in the assay on COLO 205, 17.5 µM (inactive); with HOP-62, 21.3 µM (inactive); in the assay on M19-MEL, 3.72 µM (inactive); with Malme-3M, 19.1 µM (inactive); in the assay with NCI-H226, 14.4 µM (inactive). Besides, the GI50 in the assay with NCI-H23 was 13.5 µM (inactive); in the assay on OVCAR-8 it was 15.6 µM (inactive); in the assay with RPMI-8226 it was 2.58 µM (inactive); in the assay with SK-MEL-2 it was 19.9 µM (inactive); in the assay on SK-MEL-5 it was 6.76 µM (inactive); in the assay on SN12C, 12.8 µM (inactive). For the same compound, the GI50 with SW-620 is 2.61 µM (inactive); with UACC-257 it was 16 µM (inactive); with UACC-62 it was 7.11 µM (inactive); in the assay on UO-31, 12.7 µM (inactive).

As to `C1CN2N3CCCC23C1` (stereo not given), the GI50 with A549, in the assay with COLO 205, with HOP-62, in the assay on M19-MEL, in the assay with Malme-3M and in the assay with NCI-H226 was > 100 µM (inactive) each time. Moreover, the GI50 in the assay with NCI-H23, in the assay on OVCAR-8, with RPMI-8226, with SK-MEL-2, with SK-MEL-5 and in the assay with SN12C was > 100 µM (inactive) each time. Moreover, the GI50 in the assay with SW-620, in the assay on UACC-257, in the assay with UACC-62 and in the assay on UO-31 was > 100 µM (inactive) throughout.

For the compound `C#CCN(Cc1ccc2nc(-c3ccccc3)c(Cl)nc2c1)c1cc(OC)c(OC)c(OC)c1`, the GI50 is 86.9 µM (inactive) with A549; 57.1 µM (inactive) in the assay with COLO 205; > 100 µM (inactive) in the assay on HOP-62; > 100 µM (inactive) in the assay on M19-MEL; > 100 µM (inactive) with Malme-3M; > 100 µM (inactive) in the assay with NCI-H226. Also, the GI50 with NCI-H23 was > 100 µM (inactive); in the assay with OVCAR-8, > 100 µM (inactive); in the assay on RPMI-8226, 16.1 µM (inactive); in the assay with SK-MEL-2, > 100 µM (inactive); with SK-MEL-5, 30.3 µM (inactive); in the assay on SN12C, > 100 µM (inactive). For the same compound, the GI50 with SW-620 is 15 µM (inactive); with UACC-257, 39.2 µM (inactive); in the assay on UACC-62 it was > 100 µM (inactive); in the assay on UO-31 it was > 100 µM (inactive).

Turning to `NCCNC(=O)c1cccc2cc3ccccc3nc12`, the GI50 in the assay with A549 is 1.27 µM (inactive); in the assay on COLO 205, 1.07 µM (active); in the assay with HOP-62, 1.86 µM (inactive); in the assay with M19-MEL it was 1.79 µM (inactive); with Malme-3M, 0.495 µM (active); with NCI-H226, 1.43 µM (inactive). Besides, the GI50 with NCI-H23 was 2.62 µM (inactive); in the assay with OVCAR-8, 2.08 µM (inactive); with RPMI-8226, 3.85 µM (inactive); in the assay with SK-MEL-2 it was 2.47 µM (inactive); with SK-MEL-5, 2.23 µM (inactive); with SN12C it was 2.45 µM (inactive). The GI50 in the assay with SW-620 is 1.42 µM (inactive); in the assay on UACC-257, 2.82 µM (inactive); with UACC-62, 2.75 µM (inactive); with UO-31, 5.26 µM (inactive).

For `COc1ccc(OC)c(N2CC(N)C2=O)c1` (stereo not given), the GI50 with A549, in the assay on COLO 205, in the assay with HOP-62, in the assay on M19-MEL, with Malme-3M and in the assay on NCI-H226 was > 100 µM (inactive) throughout. Moreover, the GI50 in the assay on NCI-H23, in the assay on OVCAR-8, with RPMI-8226, in the assay with SK-MEL-2, in the assay with SK-MEL-5 and in the assay with SN12C was > 100 µM (inactive) each time. In addition, the GI50 in the assay with SW-620, in the assay on UACC-257, with UACC-62 and in the assay on UO-31 was > 100 µM (inactive) throughout.
